The text below walks through data of US20260355168A1, “COMPOSITIONS AND METHODS FOR TREATING AND DETECTING CANCER” (CASE WESTERN RESERVE UNIVERSITY, priority 2022, published 2026).

“Also recorded” adds a separate entry of the source.

Test [1] deals with PTPμ (Homo sapiens, UniProt P28827). In words: PTPμ-dependent Sf9 aggregation assay. Type of test: cell-based. Conditions: 100 μM; 20 min pretreatment; in words.
The subject of test [2] is LN229 cells. Briefly: LN229 scratch wound healing assay. Type of test: cell-based, human. Conditions: for activity at 100 µM: Homo sapiens, LN-229, normalized to DMSO controls, read-out: LN229 scratch wound closure relative to DMSO controls. From the text: FIGS. 3(A-D) illustrate a histogram and images of the LN229 scratch wound assays. A. Histogram showing the effects of all soluble wedge-targeted compounds on LN229 scratch wound closure. Cell movement into the scratches was quantified from scratch wound widths at the start and end of the assay and normalized to the average movement of cells in the unblinded DMSO control samples. Data is presented as average percentages±standard error of the means (s.e.m.), and compound bar codes are shown on the x-axis. The majority of compounds were screened with an n=2. Some priority compounds were screened with 3-6 replicates. Representative endpoint images of samples treated with DMSO (B) and two priority inhibitors (C and D) are shown. The relative migration distances for each example are indicated.
Cells were seeded at a density of 2.7×10^4 cells per well into the internal wells of Incuyte1 Imagelock 96-well plates (Essen BioScience Inc., Ann Arbor, MI) and cultured overnight to form monolayers. Monolayers were wounded with an IncuCyte1 96-well Woundmaker Tool per the manufacturer's instructions. The outer wells were filled with PBS to buffer edge effects, and then the wounded monolayers were cultured in 100 μl of fresh media with compounds or DMSO (2×replicates at 100 μM or 1%, respectively) at 37 °C and 5% CO2. Images were captured every 4 hrs. using an Incucyte live cell imaging system equipped with the Scratch Wound Module. Scratch wound widths were calculated, per the manufacturer's instructions, at TO and at endpoint (typically T12 for LN229 and U87 cells and T8 for Gli36), which was taken as the last timepoint before wound closure. The cell migration distance was calculated from scratch widths [(T0Width−TendpointWidth)/2] and normalized to the average distance migrated by the DMSO controls. Values are presented as average percentages±standard errors of the means (s.e.m.). The majority of compounds were screened with an n of two, but the n for priority hits ranges from 2-6.
Scratch assays measure the ability of cells to migrate into a wound and close it creating a monolayer.

The subject of test [3] is Gli36 cells. Briefly: Gli36 glioma sphere formation and growth assay. Conditions: for Effect on Gli36 sphere formation: day 1; for Effect on Gli36 sphere formation / Effect on Gli36 sphere growth: in words. The test is classed as cell-based, human. How it is done: FIGS. 6(A-E) illustrate a histogram and images showing the results of the Gli36 sphere formation and growth assays. Selected inhibitors, activators, and control compounds identified in LN229 and/or U87 scratch wound closure assays were retested at 100 μM in a secondary assay for glioma cell (Gli36) sphere formation and growth. A. Histogram showing the effects of the indicated compounds on Day 1 sphere footprint areas. Footprint areas were measured and normalized to the average footprint area of the unblinded DMSO-treated controls. On day 1, a larger footprint area indicates inhibition of aggregation. B. Histogram showing the effects of the indicated compounds on sphere growth. Changes in sphere footprint areas were calculated and normalized to the average size change of the unblinded vehicle-treated controls. On day 7, a smaller value indicates reduced growth. […] Data is presented as percentages±s.e.m. of 2-4 replicates. Representative images of samples treated with DMSO (C) and two priority inhibitors (D and E) are shown. Relative day 1 footprint areas and day 7 growth measurements are indicated for each example.
(§1) Cells were seeded at a density of 7500 cells per well into the internal wells of 96-well plates coated with 0.75% (wt/vol) PVA as previously described. Compounds were added (2×replicates per treatment) at the indicated final concentrations, and control wells were treated with matching concentrations of DMSO. The external wells of the plates were filled with PBS to buffer against edge effects, and the cells were incubated at 37 °C and 5% CO2 for 7 days. A Leica CTR6500 microscope fitted with an automated stage was used to capture brightfield images on day 1 and day 7, and sphere footprint areas were measured using Image J (v1.52a http://imagej.nih.gov/ij) as previously described. To quantify the effects of the compounds on day 1, the footprint areas of the treated wells were normalized to the average area of the matched DMSO control wells. To quantify the effects of the compounds on sphere growth, the change in the sphere footprint areas was calculated ([…]) and then normalized to the average size change of the matched DMSO samples. All values are presented as average percentages±s.e.m.

For test [4], the system named is LN229 cells. Briefly: LN229 glioma sphere formation and growth assay. The test is classed as cell-based, human. Conditions: for Effect on LN229 sphere formation: day 1; for Effect on LN229 sphere formation / Effect on LN229 sphere growth: in words. The procedure: FIGS. 5(A-E) illustrate a histogram and images showing the results of the LN229 sphere formation and growth assays. Selected inhibitors, activators, and control compounds identified in LN229 and/or U87 scratch wound closure assays were retested at 100 μM in a secondary assay for glioma cell (LN229) sphere formation and growth. A. Histogram showing the effects of the indicated compounds on sphere formation. On day 1, sphere footprint areas were determined and normalized to the average footprint area of the unblinded vehicle-treated controls. On day 1, a larger footprint area indicates inhibition of aggregation. B. Histogram showing the effects of the indicated compounds on sphere growth. On day 7, the changes in sphere footprint areas were calculated and normalized to the average size change of the unblinded vehicle-treated controls. On day 7, a smaller value indicates reduced growth. […] Data is presented as percentages±s.e.m. of 2-4 replicates. Representative images of samples treated with DMSO (C) and two priority inhibitors (D and E) are shown. Relative day 1 footprint areas and day 7 growth measurements are indicated for each example.
FIGS. 15(A-D) illustrate a histogram and images of titration of selected compounds on LN229 sphere formation and growth. LN229 cells were plated onto non-adherent surfaces and treated with the indicated compounds at 100, 50, and 25 μM. A. On day 1, sphere footprint areas were determined and normalized to the average footprint area of the unblinded vehicle-treated controls. On day 1, a larger foot-print area indicates inhibition of aggregation. B. On day 7, the changes in sphere footprint areas were calculated and normalized to the average size change of the unblinded vehicle-treated controls. On day 7, a smaller value indicates reduced growth. […] Data is presented as percentages±s.e.m. The initial test at 100 μM and the follow-up at that dose with titration is shown. Each bar is the average of 2 replicates. Representative day 1 (C) and day 7 (D) images of samples treated with two priority inhibitors are shown. Relative day 1 sphere footprint areas and day 7 growth for each example are indicated.
as §1
We tested the effects of twenty-four compounds (11 flagged as inhibitory, 4 as stimulatory, and nine as inert in the initial scratch-wound screen, FIG. 2) on the ability of LN229 cells to mediate cell-cell adhesion and grow in 3D culture on non-adherent surfaces. To quantify sphere formation (FIG. 5A), the footprint areas of aggregates were measured on day 1 and normalized to that of the DMSO control. At this time point, a larger footprint size (>120%) indicates inhibition, i.e., the failure of cells to form a compact aggregate. To quantify sphere growth (FIG. 5B), we calculated the percent changes in sphere footprint areas between day 1 and day 7 and normalized them to that of the DMSO controls.

Sequence of PTPμ (P28827 21-1452): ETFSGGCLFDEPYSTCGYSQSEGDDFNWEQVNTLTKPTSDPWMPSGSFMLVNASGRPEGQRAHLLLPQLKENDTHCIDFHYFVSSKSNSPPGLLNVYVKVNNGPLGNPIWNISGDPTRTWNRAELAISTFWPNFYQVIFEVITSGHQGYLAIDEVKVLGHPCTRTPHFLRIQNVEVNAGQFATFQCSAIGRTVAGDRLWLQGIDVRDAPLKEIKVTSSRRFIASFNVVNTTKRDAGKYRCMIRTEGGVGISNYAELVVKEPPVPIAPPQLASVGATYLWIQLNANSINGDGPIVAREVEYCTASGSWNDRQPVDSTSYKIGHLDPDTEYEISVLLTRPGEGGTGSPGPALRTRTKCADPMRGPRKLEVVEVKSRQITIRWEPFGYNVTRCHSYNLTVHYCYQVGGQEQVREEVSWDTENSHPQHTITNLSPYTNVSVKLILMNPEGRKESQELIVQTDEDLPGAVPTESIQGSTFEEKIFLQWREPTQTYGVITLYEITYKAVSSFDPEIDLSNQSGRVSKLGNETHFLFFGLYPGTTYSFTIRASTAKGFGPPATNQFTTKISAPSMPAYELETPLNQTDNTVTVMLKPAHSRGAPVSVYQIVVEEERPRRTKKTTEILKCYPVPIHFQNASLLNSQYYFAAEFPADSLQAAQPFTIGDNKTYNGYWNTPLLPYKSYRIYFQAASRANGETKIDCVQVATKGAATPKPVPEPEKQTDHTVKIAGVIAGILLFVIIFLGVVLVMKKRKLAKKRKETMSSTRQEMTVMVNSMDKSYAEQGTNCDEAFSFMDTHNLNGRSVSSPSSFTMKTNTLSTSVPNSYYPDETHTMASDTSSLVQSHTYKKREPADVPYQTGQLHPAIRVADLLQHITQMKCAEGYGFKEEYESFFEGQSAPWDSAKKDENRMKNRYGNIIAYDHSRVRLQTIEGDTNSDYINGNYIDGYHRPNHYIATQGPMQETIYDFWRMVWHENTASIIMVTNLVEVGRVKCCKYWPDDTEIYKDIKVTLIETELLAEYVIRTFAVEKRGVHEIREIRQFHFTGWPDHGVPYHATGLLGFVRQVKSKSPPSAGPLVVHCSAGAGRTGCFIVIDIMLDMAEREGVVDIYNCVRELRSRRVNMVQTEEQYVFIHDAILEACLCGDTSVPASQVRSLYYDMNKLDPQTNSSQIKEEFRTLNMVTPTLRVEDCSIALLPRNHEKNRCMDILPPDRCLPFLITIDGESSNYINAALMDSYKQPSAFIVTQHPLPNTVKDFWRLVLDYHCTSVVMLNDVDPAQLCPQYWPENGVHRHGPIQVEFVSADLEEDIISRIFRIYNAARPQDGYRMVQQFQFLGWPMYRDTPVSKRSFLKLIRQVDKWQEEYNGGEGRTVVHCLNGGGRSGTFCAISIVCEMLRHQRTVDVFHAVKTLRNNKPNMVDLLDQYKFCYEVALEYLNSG

Regarding `CCN(C(=O)CN1C(=O)NC(C)(CCC(C)C)C1=O)c1cccc2ccccc12` (centres unmarked) [Compound 247677616], the “Effect on PTPμ-dependent Sf9 aggregation / adhesion” value in test [1] is “not shown to affect PTPμ-mediated aggregation; also recorded: did not affect PTPμ-dependent adhesion”. In addition, in test [2] (100 μM), the “Effect on LN229 cell morphology in scratch assay” value (from here on “Effect on LN229 cell morphology”) is reported as “rounding”. Also, the activity at 100 µM is < 60% in test [2] and 0% in test [3] (Homo sapiens, GLI36, 168 h, read-out: Gli36 sphere growth (indicated value; sample fell apart on day 1), growth could not be calculated, indicated as '0' growth). The “Effect on Gli36 sphere formation” value in test [3] (100 μM) was “completely blocked Gli36 sphere formation; also recorded: fell apart on day 1”. Besides, in test [4] (100 μM), the “Effect on LN229 sphere formation” value is on record as “completely blocked sphere formation”.

Turning to `COc1cc(C)ccc1OCC(=O)Nc1nc(-c2c[nH]c(C(N)=O)c2)cs1` [Compound 247678835], the “Effect on PTPμ-dependent Sf9 aggregation / adhesion” value in test [1] is “PTPμ-dependent adhesion; also recorded: inhibitors; also recorded: fewer/smaller aggregates; also recorded: strongest pan-inhibitor to affect PTPμ-dependent aggregation; also recorded: affect PTPμ-mediated aggregation”. For the same molecule, the “Effect on LN229 cell morphology” value in test [2] (100 μM) is “rounded with no ruffles”. Moreover, the “Effect on LN229 scratch wound closure / migration” value in test [2] (100 μM, in words) was “completely blocked the movement of cells into the scratch; also recorded: strongest inhibitor identified in the initial screen of LN229 migration”. The activity at 100 µM in test [2] is < 60%. Moreover, the “Effect on Gli36 sphere formation” value in test [3] (100 μM) is “slowed aggregation of Gli36 cells”. Besides, in test [3] (100 μM, day 7), the Gli36 sphere appearance result is recorded as “more optically translucent than control spheres on Day 7” and the “Effect on Gli36 sphere growth” value is on record as “grew poorly”. Further, the “Effect on LN229 sphere formation” value in test [4] (50 μM) is listed as “condensation was slowed”. Further, in test [4] (50 μM, day 7), the “Effect on LN229 sphere growth” value is “grew poorly in culture”. Further, the “Effect on LN229 sphere formation” value in test [4] (100 μM) was “failed to compact and formed a mat of cells at the bottom of the well; also recorded: dramatically disrupted sphere formation at 100 μM”. Besides, the minimal effective concentration in test [4] (Homo sapiens, LN-229, titration 100, 50, 25 μM, read-out: Lowest dose effective at inhibiting LN229 sphere growth) amounted to 50 µM.

As for `O=C(NCc1nc(-c2ccncc2)no1)c1ccc(Cl)c(S(=O)(=O)NCc2ccccc2)c1` [Compound 247678791], the “Effect on PTPμ-dependent Sf9 aggregation / adhesion” value in test [1] is recorded as “PTPμ-dependent adhesion; also recorded: inhibitors; also recorded: fewer/smaller aggregates; also recorded: affect PTPμ-mediated aggregation”. Moreover, the “Effect on LN229 cell morphology” value in test [2] (100 μM) is recorded as “subtle effects on the morphology of LN229 cells”. Also, the activity at 100 µM in test [2] was < 60%. Further, in test [3] (100 μM), the “Effect on Gli36 sphere formation” value is listed as “slowed condensation of Gli36 cells”. Also, the “Effect on Gli36 sphere growth” value in test [3] (100 μM, day 7) was “grew more slowly than controls”. Besides, the “Effect on LN229 sphere formation” value in test [4] (50 μM) was “slowed aggregation at 100 and 50 μM”; in test [4] (100 μM) it was “aggregated more slowly than controls; also recorded: slowed aggregation at 100 and 50 μM”. Further, in test [4] (100 μM, day 7), the “Effect on LN229 sphere growth” value is “grew poorly in 3D culture”. In test [4] (Homo sapiens, LN-229, 168 h, read-out: LN229 sphere growth relative to control (threshold for inhibition), heading: LN229 sphere growth relative to control, 100 μM, day 7), the sphere growth relative to control at 100 µM is < 60%.
